Reference: patent publication US7662803B2, “Method for treating warm-blooded vertebrates with halide-free glucosamine-acidic drug complexes” (Gluconova, LLC, priority 2004, dated 2010)

Columns and labels:
Assay type in all cases: in vivo
male Swiss-Webster mice = assay: abdominal irritant test (test for analgesia), acetylcholine bromide i.p.; details: 30 min before acetylcholine bromide 5.5 mg/kg i.p., observed 10 min, 10 mice per group
Experimental: The test that was employed is an abdominal irritant test that was carried out in accordance with the procedure set forth by Collier et al., Brit. J. Pharmacol., 32:295-310 (1968).
Each group of 10 male Swiss-Webster mice weighing 25-30 g received an oral injection of (a) distilled water or 1% Tween® 80; or (b) a previously established analgesic dose of either ibuprofen (30 mg/kg), ketoprofen (200 mg/kg), naproxen (30 mg/kg), piroxicam (3 mg/kg) or aspirin (150 mg/kg) or ([…]).
Thirty minutes after each injection, each mouse was injected i.p. ([…]) with an aqueous solution of acetylcholine bromide (5.5 mg/kg). The animals were then observed for 10 minutes for the presence or absence of a characteristic wave of contraction and elongation passing caudally along the abdominal wall, accompanied by a twisting of the trunk and followed by extension of the hind limbs. The percentage of analgesia was then calculated for each group based on the percentage of mice displaying no behavioral response.

male Swiss Webster mice [1] = assay: Metrazol-induced convulsions (test for antiepileptic activity); details: 15 mg/kg subcutaneous, 15 min before metrazol 120 mg/kg s.c., 10 mice
Experimental: Three groups of 10 male Swiss Webster mice (25-30 g) received a subcutaneous injection of one of the following treatments: vehicle alone; phenytoin (15 mg/kg in 1% Tween® 80); halide-free glucosamine-phenytoin complex, ˜1:1 molar ratio, (15 mg/kg in water). Fifteen minutes later, each animal was injected subcutaneously with a convulsant dose of metrazol (120 mg/kg) and observed for 60 minutes for an entire-body convulsion.

male Swiss Webster mice [2] = assay: Elevated Plus Maze (test for antianxiety activity); details: 0.50 mg/kg intraperitoneal, 30 min before test, 5 minute on maze, 6 mice
Experimental: The apparatus employed in this example consisted of two darkened enclose arms and two open arms, with a light beam focused on the open arms. The maze is elevated to a height of 55 cm. Mice have a desire to explore the apparatus, but the open, bristly lit arms present an aversive environment so that their preference is to remain in the enclosed arms.
Thirty minutes later, each animal was individually placed on the elevated maze for 5 minute and the time spent on the open (aversive) arms was recorded.

[3] = 30 mg/kg oral (complex: mg/kg of the complex)

`CC(C)Cc1ccc(C(C)C(=O)O)cc1` (stereo not shown) [ibuprofen] was tested, and the “analgesia (percentage of mice displaying no behavioral response)” value (male Swiss-Webster mice; [3]) was 80%.
In the case of `O=C1NC(=O)C(c2ccccc2)(c2ccccc2)N1` [Phenytoin, phenytoin], the “No. of mice protected (no body seizures in 60 min.)” value (male Swiss Webster mice [1]) is reported as 1/10.
`COc1ccc2cc([C@H](C)C(=O)O)ccc2c1` [naproxen] was tested, and the “analgesia (percentage of mice displaying no behavioral response)” value (male Swiss-Webster mice; [3]) was 70%.
For `CC(=O)Oc1ccccc1C(=O)O` [aspirin], the “analgesia (percentage of mice displaying no behavioral response)” value (male Swiss-Webster mice; 0.50 mg/kg oral as printed (complex: mg/kg of the complex)) was 70%.
`CN1C(=O)CN=C(c2ccccc2)c2cc(Cl)ccc21` [Diazepam, diazepam] was tested, and the “Mean time (sec) ± s.e.m. in open arms” value (male Swiss Webster mice [2]) was 30.3 ± 12.7 s.
For `CN1C(C(=O)Nc2ccccn2)=C(O)c2ccccc2S1(=O)=O` [piroxicam], the “analgesia (percentage of mice displaying no behavioral response)” value (male Swiss-Webster mice; 3 mg/kg oral (complex: mg/kg of the complex)) was 70%.
For `CC(C(=O)O)c1cccc(C(=O)c2ccccc2)c1` (stereo not shown) [ketoprofen], the “analgesia (percentage of mice displaying no behavioral response)” value (male Swiss-Webster mice; 200 mg/kg oral (complex: mg/kg of the complex)) was 56%.
